Converted amounts (≈) assume the structure as drawn. Where two headings read alike, the source gives them in different places.
Test: Solubility in aqueous media
Assay type: physicochemical
Excerpt: The compounds mentioned at the outset and pharmaceutically usable salts thereof, such as, for example, ethanolamine salts thereof, have low solubilities in aqueous media. […] These poor solubilities have the consequence that the compound can only be taken up slowly and to an inadequate extent by the body. This is associated with poor bioavailability and a slow increase in the concentration in the blood.

solubility (aqueous buffer, phosphate buffer (pH 1.0), read-out: solubility): 0.022 µg/mL (≈ 0.0456 µM) | solubility (aqueous buffer, phosphate buffer (pH 6), read-out: solubility): 0.0016 µg/mL (≈ 0.00332 µM) | solubility (aqueous buffer, phosphate buffer (pH 7.0), read-out: solubility): 0.019 µg/mL (≈ 0.0394 µM) | solubility (synthetic gastric juice): 1 mg/100 ml | solubility (synthetic intestinal juice): 6 mg/100 ml
SMILES: COc1ccc(CNc2nc(C3CCC(C(=O)O)CC3)nc3sc4ccccc4c23)cc1Cl (centres unmarked) [4-[4-(3-Chloro-4-methoxybenzylamino)benzo[4,5]thieno[2,3-d]pyrimidin-2-yl]cyclohexanecarboxylic acid]

From US20040082600A1, “Pharmaceutical composition” (priority 2001, published 2004)
